Measured values: ChEMBL document CHEMBL2439993, “Cynaropicrin targets the trypanothione redox system in Trypanosoma brucei” (Bioorg Med Chem, 2013)
Activity calls are given as the source filed them. No cut-off for these calls is given here.

Legend:
[1] = system: Trypanosoma brucei rhodesiense; assay: Reduction of GSH level in Trypanosoma brucei rhodesiense at 50 uM after 40 mins by UHPLC-MS/MS analysis; type: functional, organism-based
[2] = system: Trypanosoma brucei rhodesiense; assay: Induction of CYN-thiol adduct formation in Trypanosoma brucei rhodesiense assessed as GS-CYN monoadduct level at 50 uM after 5 mins by UHPLC-MS/MS analysis; type: organism-based; conditions: in vivo
[3] = system: Trypanosoma brucei rhodesiense; assay: Induction of CYN-thiol adduct formation in Trypanosoma brucei rhodesiense assessed as extracellular CYN level at 50 uM after 10 mins by UHPLC-MS/MS analysis; type: organism-based; conditions: in vivo
[4] = system: Trypanosoma brucei rhodesiense; assay: Inhibition of ornithine decarboxylase in Trypanosoma brucei rhodesiense STIB900 assessed as intracellular ornithine level at 50 uM after 20 mins (reference value: 4 +/- 1 uM); type: cell-based
[5] = Induction of T(SH)2-CYN adduct formation by HPLC-MS analysis; type: physicochemical
[6] = system: Trypanosoma brucei rhodesiense; assay: Induction of CYN-thiol adduct formation in Trypanosoma brucei rhodesiense assessed as extracellular CYN level at 50 uM after 40 mins by UHPLC-MS/MS analysis; type: organism-based; conditions: in vivo
[7] = system: Trypanosoma brucei rhodesiense; assay: Induction of CYN-thiol adduct formation in Trypanosoma brucei rhodesiense assessed as extracellular CYN level at 50 uM after 30 mins by UHPLC-MS/MS analysis; type: organism-based; conditions: in vivo, 0.5 h
[8] = system: Trypanosoma brucei rhodesiense; assay: Induction of CYN-thiol adduct formation in Trypanosoma brucei rhodesiense assessed as intracellular CYN level at 50 uM after 5 mins by UHPLC-MS/MS analysis; type: organism-based; conditions: in vivo
Trypanosoma brucei [9] = assay: Irreversible inhibition of trypanothione synthatase in Trypanosoma brucei using GSH as substrate at 200 uM after 240 mins
[10] = system: Trypanosoma brucei rhodesiense; assay: Induction of CYN-thiol adduct formation in Trypanosoma brucei rhodesiense assessed as extracellular CYN level at 50 uM after 20 mins by UHPLC-MS/MS analysis; type: organism-based; conditions: in vivo
Trypanosoma brucei [11] = assay: Antitrypanosomal activity against Trypanosoma brucei assessed as stumpy phenotype at 50 uM after 40 mins by Giemsa staining-based light microscopy; type: functional, organism-based
[12] = system: Trypanosoma brucei rhodesiense; assay: Reduction of T(SH)2 level in Trypanosoma brucei rhodesiense at 50 uM after 40 mins by UHPLC-MS/MS analysis; type: functional, organism-based
[13] = system: Trypanosoma brucei rhodesiense; assay: Induction of CYN-thiol adduct formation in Trypanosoma brucei rhodesiense assessed as T(S-CYN)2 bisadduct level at 50 uM after 5 mins by UHPLC-MS/MS analysis; type: organism-based; conditions: in vivo
[14] = Induction of GS-CYN monoadduct formation by HPLC-MS analysis; type: physicochemical
Trypanosoma brucei [15] = assay: Antitrypanosomal activity against Trypanosoma brucei assessed as intermediate phenotype at 50 uM after 5 to 10 mins by Giemsa staining-based light microscopy; type: functional, organism-based
[16] = system: Trypanosoma brucei rhodesiense; assay: Induction of CYN-thiol adduct formation in Trypanosoma brucei rhodesiense assessed as extracellular CYN level at 50 uM after 5 mins by UHPLC-MS/MS analysis; type: organism-based; conditions: in vivo
Trypanosoma cruzi = assay: Inhibition of trypanothione reductase in Trypanosoma cruzi using T(S)2 as substrate at 100 to 200 uM after 240 mins by spectrophotometry in presence of NADPH
Trypanosoma brucei [17] = assay: Inhibition of trypanothione synthatase in Trypanosoma brucei using GSH as substrate at 200 uM

SMILES | Activity [1] | Activity [2] [µM] | Activity [3] [µM] | INH [4] [µM] | Activity [5] | Activity [6] [µM] | Activity [7] [µM] | Activity [8] [µM] | inhibition (Trypanosoma brucei [9]) [%] | Activity [10] [µM] | Activity (Trypanosoma brucei [11]) | Activity [12] | Activity [13] [µM] | Activity [14] | Activity (Trypanosoma brucei [15]) | Activity [16] [µM] | inhibition (Trypanosoma cruzi) | inhibition (Trypanosoma brucei [17])
C=C(CO)C(=O)O[C@H]1CC(=C)[C@@H]2C[C@H](O)C(=C)[C@@H]2[C@H]2OC(=O)C(=C)[C@@H]21 [CYNAROPICRIN] | Active | 42 | 39.6 | 50 | Active | 37.1 | 33.3 | 23 | 51 | 35.8 | Active | Active | 49 | Active | Active | 34.9 | inactive | inactive
NCCCC(N)(C(=O)O)C(F)F (centres undefined) |  |  |  | 48 |  |  |  |  |  |  |  |  |  |  |  |  |  | 
